These results are taken from PMC8279484 (Journal of Medicinal Chemistry, 2021).

In experiment [1] the test system is NF-κB. The experiment in a line: TNF-α-induced NF-κB reporter (pNF-κB-SEAP) assay in vSMCs. The class given is cell-based, mouse. The settings on record: (R)-6 1 nM, TNF-α 1 ng/mL 24 h; TNF-α alone 5-fold. As to the method: Mouse primary vascular SMCs were cultured at 37 °C in a humidified atmosphere of 95% air/5% CO2 and maintained in Dulbecco’s modified Eagle’s medium (DMEM; Life Technologies) supplemented with 25 mmol/L glucose with 10% (v/v) FBS. For treatments, media contained only 1% FBS.
NF-κB activity was determined by measuring secreted alkaline phosphatase in the culture supernatant using the SEAP Reporter Gene Assay System (Roche Australia). Cell experiments were performed six to eight times, and the values presented are the mean ± SEM from independent experiments.

The test system of experiment [2] is C57BL/6J mice. The experiment in a line: Murine zymosan-induced peritonitis. The settings on record: peritoneal lavage, n = 5 mice. The class given is in vivo, mouse. Here is the method: Male C57BL/6J mice of 9 weeks of age were purchased from Charles River (Kent, U.K.) and were housed in a specific pathogen-free facility in individually ventilated and filtered cages under positive pressure. Peritonitis was induced in mice by ip injection of zymosan (purchased from Sigma-Aldrich; 1 mg per mouse in 0.5 mL of phosphate-buffered saline (PBS)).[73] Mice were treated with dexamethasone (1 μg/g) purchased from Sigma-Aldrich 1 h prior to zymosan injection or (R)-6 (2 and 6 ng/g) (200 μL IP) 30 min prior to zymosan injection. Peritoneal cells were collected by lavage 4 h after injection of zymosan. The local Animal Use and Care Committee and The UK Home Office approved the animal experiments in accordance with the derivatives of both The Home Office Guidance on the Operation of Animals (Scientific Procedures) Act 1986 and The Guide for the Care and Use of Laboratory Animals of the National Research Council.
Surface marker expression on peritoneal cells was assessed by flow cytometry with data collection on a FACSCalibur (Becton Dickinson). Data were analyzed with FlowJo analysis software (Treestar Inc.). Cells were stained with AlexaFluor488 conjugated anti-F4/80 (clone BM8; eBioscience); APC conjugated anti-CD11b (clone M1/70; eBioscience) and Pacific blue conjugated anti-Ly6G (clone 1A8; BioLegend) antibodies. Prior to surface staining, peritoneal cells were counted manually (Neubauer chamber) with Turks solution. Using appropriate fluorescence minus one (FMO) controls, quadrants were drawn, and data were plotted on logarithmic-scale density- or dot-plots.

On to `CCCCC[C@@H](O)c1nc2ccccc2nc1/C=C/[C@@H](O)[C@@H](O)CCCC(=O)OC` [(R)-6, Methyl (5S,6R,E)-5,6-Dihydroxy-8-(3-((R)-1-hydroxyhexyl)quinoxalin-2-yl)oct-7-enoate], for which the “NF-κB activity, fold change relative to vehicle” value in experiment [1] is 3 fold. The “Total no of PMNs” value in experiment [2] ((R)-6 2 μg/kg ip (low dose) + zymosan 40 mg/kg) was 4.4 ± 1.1 × 10^6/mL; in experiment [2] ((R)-6 6 μg/kg ip (high dose) + zymosan 40 mg/kg), 3.2 ± 0.7 × 10^6/mL.
